# Results from article PMC5108032, “Discovery of a Quinoline-4-carboxamide Derivative with a Novel Mechanism of Action, Multistage Antimalarial Activity, and Potent in Vivo Efficacy” (Journal of Medicinal Chemistry, 2016).
# Key:
# Pf (3D7) = assay: Ligand efficiency metrics (LE, LLE, LELP), selectivity and fold changes; parameters: species or system Plasmodium falciparum
# [1] = Intrinsic clearance (Cli) in rat liver microsomes; type: in vitro ADME; settings: rat liver microsome
# Description: (§1) inhibition at top, C= EC50, D= slope, x= inhibitor concentration and y= % inhibition. […]
# (§2) reach 100% of inhibition, B was fixed to 100 only when at least 50% of inhibition was reached.
# (§3) Plasmodium falciparum late stage (IV-V) gametocyte high content imaging assay Plasmodium falciparum NF54-pfs16-LUC-GFP stage IV-V Gametocytes were produced as described previously.5 Compounds were solubilized in DMSO and serially diluted in three concentrations per log standard curves in DM SO. One µl of compound was subsequently diluted in 25µl of water (4% DMSO) and 5µl transferred into the base of 384 well PerkinElmer CellCarrier plates. Forty-five µl of stage IV-V gametocytes (10%P in 0.1%H) were added to the imaging plates which were in turn sealed with a gas permeable membrane and incubated at 37°C, 5% CO 2, 5% O2, 90% N2 and 60% humidity […]
# Post incubation, 5µl of MitoTracker® Red CM -H2Xros (MTR) solution (0.66ug/ml) was added to all wells and the plates incubated for a further 16hours. The assay plates were then imaged and the number of viable gametocytes determined for test compounds plus 0.4%DMSO and 5µM Puromycin.
# (0.4%DMSO) control values. Percent inhibition was plotted against log compound concentration using a 4 parameter log dose, non-linear regression analysis, with sigmoidal dose response (variable slope) curve fit using Prizm 4.0. IC50 values were obtained from this curve fit. The compound testing was performed in duplicate point within two separate experiments.
# Plasmodium berghei ookinete development assay
# Assay was performed as previously reported.6 Briefly blood containing P. berghei CTRPp-GFP gametocytes was rapidly harvested from infected mice and introduced to test compounds pre-diluted in ookinete medium (to induce gamete formation and support ookinete development) in 96-well plates. Plates were incubated in the dark at 21°C for 22 hr before GFP fluorescence intensity measured in a plate reader. % inhibition of ookinete formation was calculated with reference to the fluorescence intensity values of a positive control (20 µM cycloheximide) and a solvent-only negative control (DMSO). All assays were performed in triplicate independent experiments and EC50 values calculated in Graphpad Prism.
# The aqueous solubility of the test compounds was measured using laser nephelometry, as described previously.7 Compounds were subject to serial dilution from 10 mg/mL to 0.5 mg/mL in DMSO. An aliquot was then mixed with MilliQ water to obtain an aqueous dilution plate with a final concentration range of 100 – 5 μg/mL, with a final DMSO concentration of 1.0%. Triplicate aliquots were transferred to a flat bottomed polystyrene plate which was immediately read on the NEPHELOstar (BMG Lab Technologies). The amount of laser scatter caused by insoluble particulates (relative nephelometry units, RNU) was plotted against compound concentration using a segmental regression fit, with the point of inflection being quoted as the compounds aqueous solubility (μg/mL; […]
# Intrinsic Clearance (Cli) experiments
# The procedure was carried out as reported previously.7 Test compound (0.5 µM) was incubated with female CD1 mouse, male sprague-dawley rat or pooled human mixed gender liver microsomes (Xenotech LLC TM; 0.5 mg/mL 50 mM potassium phosphate buffer, pH 7.4) and the reaction initiated […]
# by the addition of excess NADPH (8 mg/mL 50 mM potassium phosphate buffer, pH 7.4). […]
# [2] = test system: Plasmodium falciparum strain 3D7; assay: Plasmodium falciparum screening, SYBR green growth inhibition; type: cell-based; settings: 3D7, supplementary csv, read-out: Pf (3D7) EC50
# Method: Plasmodium falciparum screening
# Assays against P. falciparum were conducted as previously described.1 Cultures of the widely-used malaria reference strain of chloroquine-sensitive Plasmodium falciparum strain 3D7 were maintained in a 5% suspension of human red blood cells (obtained from East of Scotland Blood Transfusion Service, Ninewells Hospital, Dundee) cultured in RPMI 1640 medium (pH 7.3) supplemented with 0.5% Albumax II (Gibco Life Technologies, San Diego, CA), 12 mM sodium bicarbonate, 0.2 mM hypoxanthine and 20 mg/L gentamicin at 37°C, in a humidified atmosphere of 1% O 2, 3% CO2 with a balance of nitrogen. Growth inhibition was quantified using a fluorescence assay utilising the binding of SYBR green to double stranded DNA, which emits a fluorescent signal at 528 nm after excitation at 485nm.2 Mefloquine (potency range 30-60 nM) was used as a drug control to monitor the quality of the assay (Z’ = 0.6 to 0.8, Signal to background >3, where Z’ is a measure of the discrimination between the positive and negative controls on a screen plate). A 96-well [3H]-Hypoxanthine incorporation assay was also developed as a secondary assay in order to validate compounds from the initial screen in an orthogonal platform.3 Compound bioactivity from both assays was expressed as […]
# P. falciparum (panel of resistant strains) in vitro assay. (Swiss TPH)
# All Plasmodium strains were cultured according to Trager and Jensen and are described at www.beiresources.org (resistant strains: K1, W2, 7G8, TM90C2A, D6 and V1/S, sensitive strain:
# NF54). EC50 values were determined in vitro by measuring incorporation of the nucleic acid precursor […]
# Mammalian Cell Growth Inhibition assay
# A counter-screen against normal diploid human fibroblasts (MRC-5 cell line) was carried out to exclude non-selective, and toxic compounds. The assay was essentially carried out as described previously.4 Cells were plated and incubated overnight to allow them to adhere as monolayers. A working stock of each test compound was transferred to an intermediate 384-well plate and pre-diluted with minimum essential media (MEM). The pre-diluted stocks were then transferred onto the cell monolayers, and the plates were incubated for 68 h. Resazurin, to a final concentration of 50 μM, was added to each well, after which plates were incubated for a further 3 h and measured for fluorescence (λex=528 nm, λem=590 nm)
# In vitro Cell Assay Data Analysis.
# All data was processed using IDBS ActivityBase® raw data was converted into per cent inhibition through linear regression by setting the high inhibition control as 100% and the no inhibition control as 0%. Quality control criteria for passing plates were as follows: Z’> 0.5, S:B> 3, %CV(no inhibition < 15 . The formula used to calculate Z’ is 1 3× (St D e v _ hi gh + St D e v _ low) . […]
# All EC50 Curve fitting was undertaken using XLFit version 4.2 using Model 205 with the following 4 parametric equation: y = A + B A A + ($-&) ,where A=% inhibition at bottom, B=% […]
# as §1, §2, §3
# Post incubation, 5µl of MitoTracker® Red CM -H2Xros (MTR) solution (0.66ug/ml) was added to all wells and the plates incubated for a further 16hours. […]
# [3] = Experimental pKa by potentiometric titration; type: physicochemical; settings: value in parentheses, read-out: R^3 group pKa, experimental
# Description: Table 4 SAR Study of the R^3 Substituent: Aromatic Groups | column: R^3 group pKa^a
RLM Cli [1] [mL min^–1 g^–1],EC50 [2] [nM],pKa [3],SMILES,LLE (ligand-lipophilicity efficiency) (Pf (3D7)),"improvement / increase in potency (Pf (3D7); Pf (3D7), relative to the comparator compound of the sentence) [fold]"
<0.5,1.9,6.3,O=C(NCCN1CCCC1)c1cc(-c2ccc(CN3CCOCC3)cc2F)nc2ccc(F)cc12 [Compound 41],–,–
–,–,6.3,"O=C(NCCN1CCCC1)c1cc(-c2ccc(CN3CCOCC3)cc2Cl)nc2ccc(F)cc12 [Compound 42, 2-(2-Chloro-4-(morpholinomethyl)phenyl)-6-fluoro-N-(2-(pyrrolidin-1-yl)ethyl)quinoline-4-carboxamide]",–,–

# More lines, now with the values behind:
SMILES,RLM Cli [1] [mL min^–1 g^–1],EC50 [2] [nM],pKa [3],LLE (ligand-lipophilicity efficiency) (Pf (3D7)),"improvement / increase in potency (Pf (3D7); Pf (3D7), relative to the comparator compound of the sentence) [fold]"
"O=C(NCCN1CCCC1)c1cc(NCCCN2CCOCC2)nc2ccc(F)cc12 [Compound 25, 6-Fluoro-2-((3-morpholinopropyl)amino)-N-(2-(pyrrolidin-1-yl)ethyl)quinoline-4-carboxamide]",<0.5,–,–,5.4,–
"O=C(NCCN1CCCC1)c1cc(NCCCCN2CCOCC2)nc2ccc(Cl)cc12 [Compound 27, 6-Chloro-2-((4-morpholinobutyl)amino)-N-(2-(pyrrolidin-1-yl)ethyl)quinoline-4-carboxamide]",–,3.8,–,6.2,17
"O=C(NCCN1CCCC1)c1cc(NCCC2CCOCC2)nc2ccc(Cl)cc12 [Compound 30, 6-Chloro-N-(2-(pyrrolidin-1-yl)ethyl)-2-((2-(tetrahydro-2H-pyran-4-yl)ethyl)amino)quinoline-4-carboxamide]",0.8,–,–,–,–
"O=C(NCCN1CCCC1)c1cc(-c2ccc(S(=O)(=O)N3CCOCC3)cc2)nc2ccc(F)cc12 [Compound 38, 6-Fluoro-2-(4-(morpholinosulfonyl)phenyl)-N-(2-(pyrrolidin-1-yl)ethyl)quinoline-4-carboxamide]",–,4.4,–,–,–
